Assay results: ChEMBL document CHEMBL4184276, “Curcumin inspired 2-chloro/phenoxy quinoline analogues: Synthesis and biological evaluation as potential anticancer agents” (Bioorg Med Chem Lett, 2018)
Activity calls are given as the source filed them. No cut-off for these calls is given here.

What was measured:
HeLa = assay: Cytotoxicity against human HeLa cells assessed as reduction in cell viability after 48 hrs by MTT assay; type: functional, cell-based
HGC-27 = assay: Cytotoxicity against human HGC27 cells assessed as reduction in cell viability after 48 hrs by MTT assay; type: functional, cell-based; details: HGC-27, 48 h
NCI-H460 [1] = assay: Cytotoxicity against human NCI-H460 cells assessed as reduction in cell viability after 48 hrs by MTT assay; type: functional, cell-based; details: NCI-H460, 48 h
DU-145 [2] = assay: Cytotoxicity against human DU145 cells assessed as reduction in cell viability after 48 hrs by MTT assay; type: functional, cell-based; details: DU-145, 48 h
PC-3 [3] = assay: Cytotoxicity against human PC3 cells assessed as reduction in cell viability after 48 hrs by MTT assay; type: functional, cell-based; details: PC-3, 48 h
4T1 = assay: Cytotoxicity against mouse 4T1 cells assessed as reduction in cell viability after 48 hrs by MTT assay; type: functional, cell-based; details: 4T1, 48 h
[4] = Aqueous solubility in milli-Q water at 2 mg incubated for 5 mins followed by sonication for 1 mins measured after 24 hrs by UV-Visible spectroscopic method; type: physicochemical
NCI-H460 [5] = assay: Potency index, ratio of curcumin IC50 to compound IC50 for human NCI-H460 cells; type: functional
DU-145 [6] = assay: Potency index, ratio of curcumin IC50 to compound IC50 for human DU145 cells; type: functional
PC-3 [7] = assay: Potency index, ratio of curcumin IC50 to compound IC50 for human PC3 cells; type: functional
PC-3 [8] = assay: Cell cycle arrest in human PC3 cells assessed as accumulation at sub-G1 phase at 2 uM after 24 hrs by propidium iodide staining based flow cytometry (reference value: 0.43%); type: functional
PC-3 [9] = assay: Cell cycle arrest in human PC3 cells assessed as accumulation at G0/G1 phase at 2 uM after 24 hrs by propidium iodide staining based flow cytometry (reference value: 55.61%); type: functional
PC-3 [10] = assay: Cell cycle arrest in human PC3 cells assessed as accumulation at S phase at 2 uM after 24 hrs by propidium iodide staining based flow cytometry (reference value: 9.48%); type: functional
PC-3 [11] = assay: Cell cycle arrest in human PC3 cells assessed as accumulation at G2/M phase at 2 uM after 24 hrs by propidium iodide staining based flow cytometry (reference value: 34.49%); type: functional
PC-3 [12] = assay: Cell cycle arrest in human PC3 cells assessed as accumulation at sub-G1 phase at 4 uM after 24 hrs by propidium iodide staining based flow cytometry (reference value: 0.43%); type: functional
PC-3 [13] = assay: Cell cycle arrest in human PC3 cells assessed as accumulation at G0/G1 phase at 4 uM after 24 hrs by propidium iodide staining based flow cytometry (reference value: 55.61%); type: functional
PC-3 [14] = assay: Cell cycle arrest in human PC3 cells assessed as accumulation at S phase at 4 uM after 24 hrs by propidium iodide staining based flow cytometry (reference value: 9.48%); type: functional
PC-3 [15] = assay: Cell cycle arrest in human PC3 cells assessed as accumulation at G2/M phase at 4 uM after 24 hrs by propidium iodide staining based flow cytometry (reference value: 34.49%); type: functional
PC-3 [16] = assay: Cell cycle arrest in human PC3 cells assessed as accumulation at G2/M phase after 24 hrs by propidium iodide staining based flow cytometry; type: functional
PC-3 [17] = assay: Induction of apoptosis in human PC3 cells assessed as cell membrane blebbing at 1 uM after 24 hrs by acridine orange/ethidium bromide staining based fluorescence microscopic method; type: functional
PC-3 [18] = assay: Induction of apoptosis in human PC3 cells assessed as chromatin condensation at 1 uM after 24 hrs by acridine orange/ethidium bromide staining based fluorescence microscopic method; type: functional, cell-based
PC-3 [19] = assay: Induction of apoptosis in human PC3 cells assessed as non-uniform distribution of chromatin at 2 uM after 24 hrs by acridine orange/ethidium bromide staining based fluorescence microscopic method; type: functional, cell-based
PC-3 [20] = assay: Induction of apoptosis in human PC3 cells assessed as fragmentation of chromatin at 4 uM after 24 hrs by acridine orange/ethidium bromide staining based fluorescence microscopic method; type: functional, cell-based
PC-3 [21] = assay: Induction of apoptosis in human PC3 cells assessed as condensed and pyknotic nuclei formation at 4 uM after 24 hrs by DAPI staining based fluorescence microscopic method; type: functional, cell-based
PC-3 [22] = assay: Induction of ROS generation in human PC3 cells at 1 to 2 uM after 24 hrs by DCFDA staining based flow cytometry; type: functional, cell-based
PC-3 [23] = assay: Induction of apoptosis in human PC3 cells assessed as live cells at 2 uM after 24 hrs by Annexin V-FITC/propidium iodide staining based flow cytometry (reference value: 84.82%); type: functional
PC-3 [24] = assay: Induction of apoptosis in human PC3 cells assessed as early apoptotic cells at 2 uM after 24 hrs by Annexin V-FITC/propidium iodide staining based flow cytometry (reference value: 7.1%); type: functional
PC-3 [25] = assay: Induction of apoptosis in human PC3 cells assessed as late apoptotic cells at 2 uM after 24 hrs by Annexin V-FITC/propidium iodide staining based flow cytometry (reference value: 7.8%); type: functional
PC-3 [26] = assay: Induction of apoptosis in human PC3 cells assessed as necrotic cells at 2 uM after 24 hrs by Annexin V-FITC/propidium iodide staining based flow cytometry (reference value: 0.28%); type: functional
PC-3 [27] = assay: Induction of apoptosis in human PC3 cells assessed as live cells at 4 uM after 24 hrs by Annexin V-FITC/propidium iodide staining based flow cytometry (reference value: 84.82%); type: functional
PC-3 [28] = assay: Induction of apoptosis in human PC3 cells assessed as early apoptotic cells at 4 uM after 24 hrs by Annexin V-FITC/propidium iodide staining based flow cytometry (reference value: 7.1%); type: functional
PC-3 [29] = assay: Induction of apoptosis in human PC3 cells assessed as late apoptotic cells at 4 uM after 24 hrs by Annexin V-FITC/propidium iodide staining based flow cytometry (reference value: 7.8%); type: functional
PC-3 [30] = assay: Induction of apoptosis in human PC3 cells assessed as necrotic cells at 4 uM after 24 hrs by Annexin V-FITC/propidium iodide staining based flow cytometry (reference value: 0.28%); type: functional

## COc1ccc(/C=C/C(=O)/C=C/c2cc3ccccc3nc2Oc2ccc(Br)cc2)cc1OC
HeLa
  IC50: > 10 µM
HGC-27
  IC50: > 10 µM
NCI-H460 [1]
  IC50: > 10 µM
DU-145 [2]
  IC50: > 10 µM
PC-3 [3]
  IC50: > 10 µM
4T1
  IC50: > 10 µM

## COc1cc(OC)c(/C=C/C(=O)/C=C/c2cc3ccccc3nc2Oc2ccc(Br)cc2)c(OC)c1
HeLa
  IC50: > 10 µM
HGC-27
  IC50: > 10 µM
NCI-H460 [1]
  IC50: > 10 µM
DU-145 [2]
  IC50: > 10 µM
PC-3 [3]
  IC50: > 10 µM
4T1
  IC50: > 10 µM

## COc1ccc(/C=C/C(=O)/C=C/c2cc3ccccc3nc2Oc2ccc(Br)cc2)cc1
HeLa
  IC50: > 10 µM
HGC-27
  IC50: > 10 µM
NCI-H460 [1]
  IC50: > 10 µM
DU-145 [2]
  IC50: > 10 µM
PC-3 [3]
  IC50: > 10 µM
4T1
  IC50: > 10 µM

## COc1cc(/C=C/C(=O)CC(=O)/C=C/c2ccc(O)c(OC)c2)ccc1O [CURCUMIN]
NCI-H460 [1]
  IC50: 17.1 µM
DU-145 [2]
  IC50: 33.1 µM
PC-3 [3]
  IC50: 18.7 µM
[4]
  solubility: Soluble

## COc1ccc(/C=C/C(=O)/C=C/c2cc3ccccc3nc2Oc2cccc(Cl)c2)cc1OC
HeLa
  IC50: > 10 µM
HGC-27
  IC50: > 10 µM
NCI-H460 [1]
  IC50: > 10 µM
DU-145 [2]
  IC50: > 10 µM
PC-3 [3]
  IC50: > 10 µM
4T1
  IC50: > 10 µM

## COc1ccc(OC)c(/C=C/C(=O)/C=C/c2cc3ccccc3nc2Oc2ccc(Br)cc2)c1
HeLa
  IC50: > 10 µM
HGC-27
  IC50: > 10 µM
NCI-H460 [1]
  IC50: > 10 µM
DU-145 [2]
  IC50: > 10 µM
PC-3 [3]
  IC50: > 10 µM
4T1
  IC50: > 10 µM

## COc1ccc(/C=C/C(=O)/C=C/c2cc3ccccc3nc2Oc2cccc(Cl)c2)c(OC)c1
HeLa
  IC50: > 10 µM
HGC-27
  IC50: > 10 µM
NCI-H460 [1]
  IC50: > 10 µM
DU-145 [2]
  IC50: > 10 µM
PC-3 [3]
  IC50: > 10 µM
4T1
  IC50: > 10 µM

## COc1cc(OC)c(OC)cc1/C=C/C(=O)/C=C/c1cc2ccccc2nc1Cl
HeLa
  IC50: 5.41 µM
HGC-27
  IC50: 8.73 µM
NCI-H460 [1]
  IC50: 3.96 µM
DU-145 [2]
  IC50: 3.99 µM
PC-3 [3]
  IC50: 3.12 µM
4T1
  IC50: 1.81 µM
NCI-H460 [5]
  Ratio IC50: 4.3
DU-145 [6]
  Ratio IC50: 8.3
PC-3 [7]
  Ratio IC50: 6
PC-3 [8]
  Activity: 0.9%
PC-3 [9]
  Activity: 50.4%
PC-3 [10]
  Activity: 10.02%
PC-3 [11]
  Activity: 38.16%
PC-3 [12]
  Activity: 0.6%
PC-3 [13]
  Activity: 46.86%
PC-3 [14]
  Activity: 6.86%
PC-3 [15]
  Activity: 45.74%
[4]
  solubility: Soluble
PC-3 [16]
  Activity: Dose-dependent effect
PC-3 [17]
  Activity: Active
PC-3 [18]
  Activity: Active
PC-3 [19]
  Activity: Active
PC-3 [20]
  Activity: Active
PC-3 [21]
  Activity: Active
PC-3 [22]
  Activity: Active
PC-3 [23]
  Activity: 73.21%
PC-3 [24]
  Activity: 6.07%
PC-3 [25]
  Activity: 18.51%
PC-3 [26]
  Activity: 2.21%
PC-3 [27]
  Activity: 60.06%
PC-3 [28]
  Activity: 7.97%
PC-3 [29]
  Activity: 29.17%
PC-3 [30]
  Activity: 2.8%

## COc1ccc(/C=C/C(=O)/C=C/c2cc3ccccc3nc2Cl)c(OC)c1
HeLa
  IC50: > 10 µM
HGC-27
  IC50: > 10 µM
NCI-H460 [1]
  IC50: > 10 µM
DU-145 [2]
  IC50: > 10 µM
PC-3 [3]
  IC50: > 10 µM
4T1
  IC50: > 10 µM

## COc1ccc(OC)c(/C=C/C(=O)/C=C/c2cc3ccccc3nc2Oc2cccc(Cl)c2)c1
HeLa
  IC50: > 10 µM
HGC-27
  IC50: > 10 µM
NCI-H460 [1]
  IC50: > 10 µM
DU-145 [2]
  IC50: > 10 µM
PC-3 [3]
  IC50: > 10 µM
4T1
  IC50: > 10 µM
